Values belong to the compound of their own block, whether it stands above or below them.
Assay: photoluminescence quantum yield (fraction); solvent given as SMILES

photoluminescence quantum yield (in CN(C)C=O): 1
Compound: CCCCCCCCCCCCN1C(=O)c2ccc3c4ccc5c6c(ccc(c7ccc(c2c37)C1=O)c64)C(=O)N(CCCCCCCCCCCC)C5=O

Compound: c1ccc2cc3c4c(ccc3cc2c1)-c1cccc2cccc-4c12
photoluminescence quantum yield (in CCCCCCC): 0.023

photoluminescence quantum yield (in C1CCCCC1): 0.89 | photoluminescence quantum yield (in CCOC(C)=O): 0.93 | photoluminescence quantum yield (in CO): 0.86
Compound: Cc1ccccc1C1=C2C=c3c(oc4ccc(C(C)(C)C)cc34)=[N+]2[B-](F)(F)n2c1cc1c3cc(C(C)(C)C)ccc3oc12

photoluminescence quantum yield (in CCO): 0.86
Compound: CC(C)(C)OC(=O)NC(Cc1ccccc1)C(=O)OCc1ccc2c3cccc4cccc(c5cccc1c52)c43 (stereo not drawn)

photoluminescence quantum yield (in C1CCCCC1): 0.26
Compound: COc1ccc2c3c(c4ccc(OC)cc4c2c1)C(C)(C)c1c-3ccc2ccccc12

photoluminescence quantum yield (in ClCCl): 0.17
Compound: CC(C)(C)c1ccc(-c2cc(-c3ccc(-c4cc(-c5ccc(C(C)(C)C)cc5)c(C#N)s4)s3)sc2C#N)cc1

Compound: COc1cc2c(cc1C=C(C#N)C#N)c1ccccc1n2C
photoluminescence quantum yield (in C1CCOC1): 0.002 | photoluminescence quantum yield (in CC#N): 0.003 | photoluminescence quantum yield (in CCOC(C)=O): 0.004 | photoluminescence quantum yield (in CN(C)C=O): 0.005 | photoluminescence quantum yield (in CO): 0.003 | photoluminescence quantum yield (in CS(C)=O): 0.006 | photoluminescence quantum yield (in Cc1ccccc1): 0.003 | photoluminescence quantum yield (in ClC(Cl)Cl): 0.004 | photoluminescence quantum yield (in ClCCl): 0.004

Compound: CCn1c2sccc2c2c3nsnc3c3c4ccsc4n(CC)c3c21
photoluminescence quantum yield (in C1CCOC1): 0.51 | photoluminescence quantum yield (in CCOC(C)=O): 0.47 | photoluminescence quantum yield (in CN(C)C=O): 0.43 | photoluminescence quantum yield (in Cc1ccccc1): 0.45 | photoluminescence quantum yield (in ClCCl): 0.34

Compound: CCCCCCc1ccc2c3c(ccc2c1)O[B-](c1ccccc1)(c1ccccc1)[N+](c1ccc([N+]2=Cc4c(ccc5cc(CCCCCC)ccc45)O[B-]2(c2ccccc2)c2ccccc2)cc1)=C3
photoluminescence quantum yield (in C1CCOC1): 0.32 | photoluminescence quantum yield (in CC#N): 0.27 | photoluminescence quantum yield (in Cc1ccccc1): 0.35 | photoluminescence quantum yield (in ClCCl): 0.47

photoluminescence quantum yield (in C1COCCO1): 0.437
Compound: CC(=O)Nc1ccc(C2=C/C(=C\c3ccc(C#N)cc3)C(=O)O2)cc1

photoluminescence quantum yield (in C1CCOC1): 0.48 | photoluminescence quantum yield (in CC#N): 0.02 | photoluminescence quantum yield (in CCO): 0.01 | photoluminescence quantum yield (in CCOC(C)=O): 0.4 | photoluminescence quantum yield (in CN(C)C=O): 0.03 | photoluminescence quantum yield (in ClCCl): 0.25 | photoluminescence quantum yield (in c1ccccc1): 0.93
Compound: O=C(c1ccc(N(c2ccccc2)c2ccccc2)cc1)[C@H]1[C@H](c2ccccc2)C[C@](O)(c2ccccn2)C[C@]1(O)c1ccccn1

photoluminescence quantum yield (in O): 0.54
Compound: CC[n+]1nc2cc3c(cc2c2cc(C)ccc21)N(C)CCC3

photoluminescence quantum yield (in ClCCl): 0.392
Compound: c1ccc(N(c2ccccc2)c2ccc(-c3ccc(-c4nc(-c5ccccn5)n(-c5ccccc5)n4)cc3)cc2)cc1

photoluminescence quantum yield (in CC#N): 0.038
Compound: C1=CC2CC1C1C2[C@@]2(c3ccccc3)N=NC1(c1ccccc1)[C@@H]1C[C@H]12 (stereo partly drawn)

photoluminescence quantum yield (in C1CCCCC1): 0.003 | photoluminescence quantum yield (in CO): 0.001
Compound: C/C(=C\c1ccc(C)cc1)c1nc2ccccc2s1

Compound: O=P1(c2ccccc2)c2ccc(N3c4ccccc4Oc4ccccc43)cc2-c2cc(N3c4ccccc4Oc4ccccc43)ccc21
photoluminescence quantum yield (in Cc1ccccc1): 0.83 | photoluminescence quantum yield (in c1ccc2c(c1)c1ccccc1n2-c1ccc(-c2ccc(-n3c4ccccc4c4ccccc43)cc2)cc1): 0.8

photoluminescence quantum yield (in CC(C)(C)O): 0.13 | photoluminescence quantum yield (in CC(C)CO): 0.21 | photoluminescence quantum yield (in CC(C)O): 0.21 | photoluminescence quantum yield (in CCCCO): 0.23 | photoluminescence quantum yield (in CCCO): 0.25 | photoluminescence quantum yield (in CCO): 0.2 | photoluminescence quantum yield (in CN(C)C=O): 0.03 | photoluminescence quantum yield (in CNC=O): 0.14 | photoluminescence quantum yield (in CO): 0.24 | photoluminescence quantum yield (in NC=O): 0.44 | photoluminescence quantum yield (in O): 0.11
Compound: COCCOc1ccc(OCCOC)c(C=O)c1

photoluminescence quantum yield (in ClC(Cl)Cl): 0.44
Compound: CCn1c2ccccc2oc2c(C#N)c3c(oc4ccccc4n3CC)c(C#N)c21

photoluminescence quantum yield (in C1CCCCC1): 0.86
Compound: Nc1ccc2cc3ccccc3cc2c1

photoluminescence quantum yield (in ClC(Cl)Cl): 0.435
Compound: Cc1c2c(nc3ccccc13)-c1cc3c(cc1CC2)-c1nc2ccccc2c(C)c1CC3

photoluminescence quantum yield (in O): 0.32
Compound: Cc1ccc(C)c(C2=C3C=CC(=[N+](C)C)C=C3[Si](C)(C)c3cc(N(C)C)ccc32)c1

Compound: CCC1=C(C)C2=C(c3c4ccccc4cc4ccccc34)c3c(C)c(CC)c(C)n3[B-](F)(F)[N+]2=C1C
photoluminescence quantum yield (in CC#N): 0.579 | photoluminescence quantum yield (in CCCCCC): 0.871 | photoluminescence quantum yield (in CCO): 0.778 | photoluminescence quantum yield (in CN(C)C=O): 0.705 | photoluminescence quantum yield (in Cc1ccccc1): 0.806 | photoluminescence quantum yield (in ClCCl): 0.799

photoluminescence quantum yield (in CC#N): 0.101
Compound: N#C/C(=C\c1ccc(C#N)cc1)c1nc(-c2ccccc2)c(-c2ccccc2)s1

photoluminescence quantum yield (in ClC(Cl)Cl): 0.7
Compound: CCCCN1c2ccccc2Sc2cc(/C=C\c3cc(=O)oc4ccc(C)cc34)ccc21

photoluminescence quantum yield (in O): 0.28
Compound: COc1cc(-c2cc(N3CCCCC3)c(C#N)c3c2-c2cccc4cccc-3c24)cc(OC)c1OC

photoluminescence quantum yield (in C1CCOC1): 0.5 | photoluminescence quantum yield (in CC#N): 0.02 | photoluminescence quantum yield (in CCO): 0.01 | photoluminescence quantum yield (in CCOC(C)=O): 0.42 | photoluminescence quantum yield (in CN(C)C=O): 0.03 | photoluminescence quantum yield (in ClCCl): 0.26 | photoluminescence quantum yield (in c1ccccc1): 0.93
Compound: COc1ccc([C@@H]2C[C@](O)(c3ccccn3)C[C@](O)(c3ccccn3)[C@H]2C(=O)c2ccc(N(c3ccccc3)c3ccccc3)cc2)cc1

photoluminescence quantum yield (in CC#N): 0.043
Compound: Cc1cc(C)c2nc3[nH]c(=O)[nH]c(=O)c3nc2c1

Compound: N#Cc1cc(-n2c3ccccc3c3ccccc32)c(C#N)cc1-n1c2ccccc2c2ccccc21
photoluminescence quantum yield (in c1cc(-c2cccc(-n3c4ccccc4c4ccccc43)c2)cc(-n2c3ccccc3c3ccccc32)c1): 0.87 | photoluminescence quantum yield (in c1ccc2c(c1)c1ccccc1n2P1(n2c3ccccc3c3ccccc32)=NP(n2c3ccccc3c3ccccc32)(n2c3ccccc3c3ccccc32)=NP(n2c3ccccc3c3ccccc32)(n2c3ccccc3c3ccccc32)=N1): 0.85

photoluminescence quantum yield (in CC#N): 0
Compound: COc1ccc(-c2csc(/C(C#N)=C/c3ccc([N+](=O)[O-])cc3)n2)cc1

photoluminescence quantum yield (in CC#N): 0.28 | photoluminescence quantum yield (in CCCCCC): 0.46
Compound: C(=C\c1ccc2ccccc2c1)/c1ccc(Nc2ccccc2)cc1

Compound: CN(C)c1ccc(/C=C/c2cc(/C=C/c3ccc(N(C)C)cc3)nc(N)n2)cc1
photoluminescence quantum yield (in Cc1ccccc1): 0.65 | photoluminescence quantum yield (in ClC(Cl)Cl): 0.55

photoluminescence quantum yield (in ClC(Cl)Cl): 0.23
Compound: CCCCc1cc(-c2cccc(COC)c2)oc1-c1cccc(-c2cc(CCCC)c(-c3cccc(-c4oc(-c5cccc(-c6oc(-c7cccc(COC)c7)cc6CCCC)c5)cc4CCCC)c3)o2)c1

photoluminescence quantum yield (in ClCCl): 0.49
Compound: COc1ccc(-c2cnc(C#Cc3ccccc3)o2)cc1OC

photoluminescence quantum yield (in ClCCl): 0.57
Compound: CCc1cccc(CC)c1-c1c2ccccc2c(C#Cc2ccccc2)c2cc3ccccc3cc12

Compound: CC1(C)c2ccccc2N(c2ccc3c(c2)Oc2ccccc2S3(=O)=O)c2ccccc21
photoluminescence quantum yield (in Cc1ccccc1): 0.48 | photoluminescence quantum yield (in O=P(c1ccccc1)(c1ccccc1)c1ccccc1Oc1ccccc1P(=O)(c1ccccc1)c1ccccc1): 0.98

photoluminescence quantum yield (in ClC(Cl)Cl): 0.39
Compound: CC(C)(C)NC(=O)c1cc2ccc3cccc4ccc(c1C(=O)NC(C)(C)C)c2c34

photoluminescence quantum yield (in C1CCCCC1): 0.71
Compound: CCC(C)(C)c1ccc(-c2ccc3c(c2)C(CCOC)(CCOC)c2cc(C(C)(C)CC)ccc2-3)cc1

photoluminescence quantum yield (in ClCCl): 0.7
Compound: c1ccc2c(-c3c4ccccc4c(-c4ccc(-c5ccc(-n6c7ccccc7c7ccccc76)cc5)cc4)c4ccccc34)cccc2c1

photoluminescence quantum yield (in CO): 0.0015 | photoluminescence quantum yield (in ClC(Cl)Cl): 0.003 | photoluminescence quantum yield (in ClCCl): 0.003
Compound: C(#Cc1ccccc1)c1ccccc1

photoluminescence quantum yield (in ClCCl): 0.41
Compound: N#Cc1cc(/C=C/c2ccc(N(c3ccccc3)c3ccccc3)cc2)ccc1/C=C/c1ccc(/C=C/c2ccc(N(c3ccccc3)c3ccccc3)cc2)cc1C#N

photoluminescence quantum yield (in O): 0.27
Compound: CC[n+]1nc2cc3c4c(c2c2cc(C)ccc21)CCCN4CCC3

photoluminescence quantum yield (in CC#N): 0.49 | photoluminescence quantum yield (in CO): 0.54 | photoluminescence quantum yield (in ClCCl): 0.59 | photoluminescence quantum yield (in OCC(O)CO): 0.47
Compound: CCCn1c2cccc3oc4cccc5oc6cccc1c6[c+](c45)c32

photoluminescence quantum yield (in CN(C)C=O): 0.0179
Compound: CCN(CC)c1ccc(-c2nc(Oc3ccc(-c4nc5ccc(Cl)cc5o4)cc3)nc(Oc3ccc(-c4nc5ccc(Cl)cc5o4)cc3)n2)cc1

Source: the Deep4Chem optical property database
